# Assay results taken from PubChem BioAssay (NCI).
# Several values for one entry are separate records, joined by “and”; a condition that tells them apart may be missing. Identical values can stand only once.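 Following 48 hours of exposure in 96-well plates, responses at five concentrations were used to interpolate endpoints linearly. The concentration for 50% growth inhibition is given as GI50. Definition used: TGI = concentration required for complete inhibition of growth.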
# Experiments:
# Assay in all cases: NCI-60 cell line screen, 48 h
# CAKI-1 renal = tested on: CAKI-1 renal
# EKVX NSCLC = tested on: EKVX NSCLC
# OVCAR-5 ovarian = tested on: OVCAR-5 ovarian
# OVCAR-8 ovarian = tested on: OVCAR-8 ovarian
# PC-3 prostate = tested on: PC-3 prostate
# RPMI-8226 leukemia = tested on: RPMI-8226 leukemia
# SF-295 CNS = tested on: SF-295 CNS
# SK-MEL-28 melanoma = tested on: SK-MEL-28 melanoma
# SK-OV-3 ovarian = tested on: SK-OV-3 ovarian
# U251 CNS = tested on: U251 CNS
SMILES,GI50 (CAKI-1 renal),TGI (CAKI-1 renal),GI50 (EKVX NSCLC),TGI (EKVX NSCLC),GI50 (OVCAR-5 ovarian),TGI (OVCAR-5 ovarian),GI50 (OVCAR-8 ovarian),TGI (OVCAR-8 ovarian),GI50 (PC-3 prostate),TGI (PC-3 prostate),GI50 (RPMI-8226 leukemia),TGI (RPMI-8226 leukemia),GI50 (SF-295 CNS),TGI (SF-295 CNS),GI50 (SK-MEL-28 melanoma),TGI (SK-MEL-28 melanoma),GI50 (SK-OV-3 ovarian),TGI (SK-OV-3 ovarian),GI50 (U251 CNS),TGI (U251 CNS)
O=c1oc2ccc(Cl)cc2c(=O)n1-c1ccc(F)cc1F,1.45 µM,5.6 µM,1.98 µM,8.04 µM,3.43 µM,97.5 µM,2.66 µM,> 100 µM,1.07 µM,4.03 µM,0.994 µM,4.18 µM,1.76 µM,3.55 µM,1.52 µM,10.5 µM,1.12 µM,5.43 µM,1.87 µM,36.7 µM
COc1ccccc1NC(=O)CC(=O)n1nc(C)c(N=Nc2ccccc2Cl)c1C,–,> 100 µM,–,> 100 µM,–,> 100 µM,–,> 100 µM,–,> 100 µM,–,> 100 µM,–,> 100 µM,–,> 100 µM,–,98.6 µM,–,> 44.2 µM
CCn1c(SCC(=O)Nc2cc(C(F)(F)F)ccc2Cl)nc2ccccc2c1=O,24 µM,> 100 µM,–,–,61.9 µM,> 100 µM,32.2 µM,> 100 µM,14 µM,> 100 µM,> 100 µM,> 100 µM,71.9 µM,> 100 µM,53.9 µM,> 100 µM,14.6 µM,30.9 µM,30.3 µM,> 100 µM
O=C(Nc1cccc(C(F)(F)F)c1)c1ccc(NC2=C(Cl)C(=O)N(Cc3ccccc3)C2=O)cc1,1.65 µM,3.24 µM,23.5 µM,54.4 µM,16.3 µM,34.5 µM,38.4 µM,> 100 µM,14 µM,27 µM,2.17 µM,4.88 µM,10.1 µM,23.6 µM,18.2 µM,36.5 µM,25.7 µM,82.6 µM,13.7 µM,27.1 µM
COc1ccc(CNCCCN2C(=O)c3ccc4c5c(ccc(c35)C2=O)C(=O)N(CCCNCc2ccc(OC)c(OC)c2OC)C4=O)c(OC)c1OC,0.671 µM,1.95 µM,0.0929 µM,0.176 µM,0.108 µM,0.25 µM,0.0914 µM,0.242 µM,0.109 µM,0.293 µM,0.145 µM,0.56 µM,0.119 µM,0.331 µM,0.508 µM,1.12 µM,0.264 µM,0.848 µM,0.0879 µM,0.174 µM
O=C(O)CN1C(=O)CN=C(c2ccccn2)c2cc(Cl)ccc21,–,> 100 µM,–,> 100 µM,–,> 100 µM,–,> 100 µM,–,> 100 µM,–,> 100 µM,–,> 100 µM,–,> 100 µM,–,> 100 µM,–,> 100 µM
CCN1C(=O)N(CC)C2C1NN=c1s/c(=C\c3ccc(C(F)(F)F)cc3)c(=O)n12 (stereo not given),0.328 µM,36.4 µM,0.521 µM,> 56.2 µM,0.619 µM,> 43.8 µM,0.467 µM,28.2 µM,0.385 µM,> 41.1 µM,0.389 µM,8.67 µM,0.33 µM,31.2 µM,2.4 µM,38.7 µM,0.492 µM,> 100 µM,0.443 µM,> 41.6 µM
Cc1ccc(-c2nc(/C=N/Nc3cc(C)nc4ccc(Br)cc34)c(C)o2)cc1,1.73 µM,3.12 µM,9.51 µM,21.4 µM,1.86 µM,3.36 µM,2.08 µM,4.4 µM,1.71 µM,3.3 µM,2.05 µM,4.71 µM,2.86 µM,8.8 µM,1.73 µM,3.25 µM,1.8 µM,3.29 µM,1.84 µM,3.45 µM
COc1ccc(C2CC(c3ccc(OC)cc3O)=NN2c2ccc(S(N)(=O)=O)cc2)cc1 (stereo not given),6.74 µM,91.9 µM,4.48 µM,> 100 µM,79.9 µM,> 100 µM,24.1 µM,> 100 µM,4.29 µM,> 100 µM,4.67 µM,> 100 µM,29.4 µM,> 100 µM,15 µM,> 100 µM,26.1 µM,> 100 µM,6.42 µM,> 100 µM
O=C1OC(c2ccc(Cl)cc2)=N/C1=C\c1ccccc1,–,> 100 µM,–,> 100 µM,–,> 100 µM,–,> 100 µM,–,> 100 µM,–,> 100 µM,–,> 100 µM,–,> 100 µM,–,> 100 µM,–,> 100 µM
COc1c(C)c(OC)c(C(=O)CC(C)C)c(OC)c1C,–,> 100 µM,–,> 100 µM,–,> 100 µM,–,> 100 µM,–,> 100 µM,–,73.1 µM,–,> 100 µM,–,> 100 µM,–,> 100 µM,–,> 100 µM
FC(F)(F)c1nc(SCc2ccc(Cl)cc2)n[nH]1,–,> 100 µM,–,> 100 µM,–,> 100 µM,–,> 100 µM,–,> 100 µM,–,> 100 µM,–,> 100 µM,–,> 100 µM,–,> 100 µM,–,> 100 µM
CCc1[nH]nc(C(N)=O)c1N=NN(C)C,–,> 100 µM,–,> 100 µM,–,–,–,> 100 µM,–,> 100 µM,–,> 100 µM,–,> 100 µM,–,> 100 µM,–,> 100 µM,–,> 100 µM
O=C(c1ccccc1)C1OC1C(=O)c1ccccc1 (stereo not given),2.82 µM,23.4 µM,6.68 µM,> 100 µM,3.86 µM,25.2 µM,4.02 µM,> 100 µM,4.72 µM,25.7 µM,3.34 µM,11.6 µM,5.03 µM,37.3 µM,4.28 µM,44.5 µM,7.98 µM,> 100 µM,7.58 µM,37.1 µM
O=C1/C(=C/c2ccc(F)cc2)CN(C(=O)C(Cl)Cl)C/C1=C\c1ccc(F)cc1,0.309 µM,1.08 µM,0.393 µM,1.46 µM,0.323 µM,1.1 µM,0.295 µM,1.64 µM,0.25 µM,0.818 µM,0.0341 µM,0.324 µM,0.23 µM,0.67 µM,0.257 µM,0.666 µM,0.884 µM,2.2 µM,0.106 µM,0.335 µM
CCCCC(OC(=O)c1ccc(N)cc1)C(=O)Nc1nc(CC(=O)OCC)cs1 (stereo not given),39.1 µM,> 100 µM,38 µM,> 100 µM,> 100 µM,> 100 µM,40.4 µM,> 100 µM,42.4 µM,> 100 µM,26.7 µM,> 100 µM,32.3 µM,> 100 µM,42.2 µM,> 100 µM,29.1 µM,> 100 µM,44.6 µM,> 100 µM
CCCS(=O)(=O)Nc1cccc(Nc2ncnc3cc(NC(=O)CCl)ccc23)c1Cl,2.32 µM,5.95 µM,3.72 µM,12.3 µM,2.01 µM,5.64 µM,3.71 µM,14.1 µM,3.44 µM,8.44 µM,3.23 µM,8.56 µM,3.33 µM,7.17 µM,2.45 µM,9.67 µM,4 µM,8.16 µM,0.516 µM,1.16 µM
O=C(CCCC(=O)N/N=C/c1cc(Cl)ccc1O)N/N=C\c1cc(Cl)ccc1O,1.98 µM,> 100 µM,–,–,> 100 µM,> 100 µM,2.86 µM,> 100 µM,2.68 µM,> 100 µM,4.67 µM,> 100 µM,3.74 µM,> 100 µM,3.68 µM,> 100 µM,5.95 µM,> 100 µM,2.31 µM,> 100 µM
COc1cc(NS(C)(=O)=O)ccc1Cc1c2ccccc2nc2ccccc12,0.139 µM,1.53 µM,0.993 µM,4.24 µM,1.03 µM,4.17 µM,0.146 µM,1.37 µM,0.461 µM,15.6 µM,0.377 µM,3.28 µM,0.0475 µM,1.22 µM,0.672 µM,2.36 µM,0.115 µM,1.02 µM,0.136 µM,1.21 µM
CC1=C2[C@@H](CC1)[C@]1(C)O[C@@](C(C)C)(C[C@H]1OC(=O)CO)[C@H]2OC(=O)CCCc1ccccc1,4.24 µM,16.7 µM,15 µM,30.8 µM,15.7 µM,30 µM,4.58 µM,26.8 µM,3.63 µM,16.1 µM,3.08 µM,> 100 µM,12.5 µM,24.9 µM,13.9 µM,26.8 µM,16.6 µM,30.6 µM,5.61 µM,20.9 µM
CC1OC(CC(=O)O)Cc2c1c(O)c1c(O)cc(-c3cc(=O)c4c(=O)c5c(c(=O)c=4c3=O)CC(CC(=O)O)OC5C)c(O)c1c2O (stereo not given),23.6 µM,87.5 µM and 52.7 µM,26.1 µM,18.3 µM and 74.5 µM,53.1 µM,> 91.1 µM,–,75.9 µM,–,64.3 µM,20.9 µM,81.6 µM and 68.7 µM,77.3 µM,> 100 µM,79.5 µM,29.5 µM,48.8 µM,> 100 µM,26.1 µM,> 74 µM and 61 µM
CCOC(=O)Nc1ccc2c(c1)C(=O)N(CC)c1ccccc1O2,0.179 µM,> 100 µM,0.264 µM,> 100 µM,–,> 100 µM,0.235 µM,> 100 µM,0.121 µM,> 100 µM,0.126 µM,> 100 µM,0.0846 µM,0.79 µM,12.5 µM,> 100 µM,0.157 µM,> 100 µM,0.106 µM,> 100 µM
O=C(Nc1cn[nH]c1-c1nc2ccc(CN3CCOCC3)cc2[nH]1)NC1CC1,–,15.2 µM and > 10 µM,1.76 µM and > 10 µM,9.94 µM and > 10 µM,2.78 µM and 6.68 µM,9.49 µM and > 10 µM,1.74 µM and 5.19 µM,9.63 µM and > 10 µM,0.957 µM and 4.29 µM,36.2 µM and > 10 µM,7.05 µM and > 10 µM,28.3 µM and > 10 µM,0.195 µM and 1.09 µM,1.5 µM and 4.67 µM,1.79 µM and > 10 µM,5.7 µM and > 10 µM,0.375 µM and 0.299 µM,3.52 µM and 8.08 µM,0.274 µM and 1.3 µM,11.2 µM and > 10 µM
C=CCOc1ccc(N)c([N+](=O)[O-])c1,–,> 100 µM,–,> 100 µM,–,> 100 µM,–,> 100 µM,–,> 100 µM,–,> 100 µM,–,> 100 µM,–,> 100 µM,–,> 100 µM,–,> 100 µM
CC[C@H]1CCC/C=C/[C@@H]2C[C@H](O)C[C@H]2[C@H](O)/C=C/C(=O)O1,0.0444 µM,> 100 µM,0.0522 µM,> 100 µM,0.0464 µM,> 100 µM,0.0432 µM,> 100 µM,0.0517 µM,> 100 µM,0.0387 µM,12.5 µM,0.0545 µM,> 100 µM,0.0219 µM,0.134 µM,0.0476 µM,–,0.0443 µM,> 100 µM
Cc1ccc2[nH]c(O)c(N=Nc3ccccc3[N+](=O)[O-])c2c1,–,> 100 µM,–,57.3 µM,–,> 84.3 µM,–,> 33.9 µM,–,> 100 µM,–,> 100 µM,–,> 58.8 µM,–,> 100 µM,–,14.2 µM,–,18.6 µM
O=c1cc(-c2ccccc2)oc2c1ccc1ccccc12,18 µM,> 100 µM,–,–,50.7 µM,> 100 µM,26 µM,> 100 µM,23.1 µM,> 100 µM,21.7 µM,70.2 µM,–,–,29.3 µM,> 100 µM,19.3 µM,54.1 µM,17.1 µM,> 100 µM
COc1ccc2c(c1)C(=O)c1c-2c(N2CCN(C(=O)CCNCCNCCN)CC2)nc2ccccc12,18.8 µM,47.8 µM,–,–,–,–,19.9 µM,72.2 µM,10.3 µM,25.9 µM,2.93 µM,9.71 µM,20.8 µM,44.7 µM,2.04 µM,3.66 µM,14.6 µM,30.6 µM,–,–
